Experimental data published in patent US20230346670A1, “Prebiotic Oral Care Compositions and Methods” (Colgate-Palmolive Company, priority 2020, published 2023).
Values joined by “and” are separate entries in the source; they are usually repeats but may differ in a detail not shown here. Equal values may be shown once. Marks after values point to notes of the source that are not given here.

Tests used:
Format in all cases: cell-based
multi-species biofilms = test: Organic acid levels in supernatant of multi-species biofilms (ion chromatography); settings: >0 production, <0 consumption, n = 3
How it was run: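 Biofilms grown 24 h on calcium-deficient hydroxyapatite disks (Amsterdam Active Adhesion model, 37° C., microaerophilic), then rinsed in substrate solution 3 min, three times daily for 3 days; PBS pH 5.7 without substrate as negative control. Organic acids in filter-sterilized supernatant quantified by ion chromatography.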

[1] = system: A. actinomycetemcomitans virulence genes; test: Virulence gene expression in multi-species biofilm (SYBR RT-qPCR)
How it was run: (§1)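 Multi-species biofilms on hydroxyapatite disks were grown 24 h under microaerophilic conditions at 37 °C, then rinsed three times daily for 3 min over 3 days with substrate in PBS at 1 M or 1% (w/v); PBS pH 5.7 served as control. Virulence gene expression was measured by SYBR RT-qPCR normalized to housekeeping genes, giving 2^-ΔΔCt fold change versus control as geometric mean (n = 3).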

[2] = system: P. gingivalis virulence genes; test: as above; settings: for fold change in fimA expression, geometric mean (95% C.I.) / fold change in kgp expression, geometric mean (95% C.I.) / fold change in partC expression, geometric mean (95% C.I.) / fold change in rgpA expression, geometric mean (95% C.I.): relative to control, 2^-ΔΔCt, n = 3
How it was run: as §1

[3] = system: P. intermedia virulence genes; test: as above; settings: relative to control = 1
How it was run: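 Multi-species biofilms grown 24 h on CAD-HA disks (37° C., microaerophilic), then rinsed 3×/day for 3 min over 3 days with substrate at 1 M or 1% (w/v) in PBS; PBS pH 5.7 as control. Expression of 33 genes by SYBR RT-qPCR, normalized to housekeeping genes; fold change by 2^-ΔΔCt, geometric mean (95% C.I.), n = 3.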

[4] = system: F. nucleatum virulence genes; test: as above; settings: for fold change in ABC transp. perm. (ABC transporter permease) expression, geometric mean (95% C.I.) / fold change in EF-G expression, geometric mean (95% C.I.) / fold change in but. -coA transf. (butyrate-acetoacetate CoA-transferase) expression, geometric mean (95% C.I.) / fold change in hemin receptor expression, geometric mean (95% C.I.) / fold change in hemolysin expression, geometric mean (95% C.I.) / fold change in ompA expression, geometric mean (95% C.I.) / fold change in transposase expression, geometric mean (95% C.I.): relative to control = 1, 2^-ΔΔCt, n = 3
How it was run: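 Multi-species biofilms on CAD-HA disks (Amsterdam Active Adhesion model) established 24 h at 37° C. under microaerophilic conditions, then rinsed 3 min three times daily for 3 days with substrate (1 M or 1% (w/v) in PBS); PBS pH 5.7 control. 33 virulence genes from 4 periodontal pathogens quantified by SYBR RT-qPCR, housekeeping-normalized; fold change by 2^-ΔΔCt, geometric mean (n = 3).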

[5] = lower part of Table 6a, substrate 1%(w/v), relative to control = 1
[6] = substrate 1 M, relative to control = 1, 2^-ΔΔCt, n = 3
[7] = lower part of Table 6d, head prints 1 M (lower part 1%(w/v))
[8] = upper part of Table 6d, substrate 1 M, n = 3

CC(=O)N[C@H]1C(O)O[C@H](CO)[C@@H](O)[C@@H]1O (stereo partly drawn) [NADG, N-acetyl-D-glucosamine]
acetate level in biofilm supernatant, mean ± SD (multi-species biofilms; substrate 1% (w/v)): 379 ± 10 mg/L | butyrate level in biofilm supernatant, mean ± SD (multi-species biofilms; substrate 1% (w/v)): 2238 ± 59 mg/L | formate level in biofilm supernatant, mean ± SD (multi-species biofilms; substrate 1% (w/v)): 4315 ± 198 mg/L | lactate level in biofilm supernatant, mean ± SD (multi-species biofilms; substrate 1% (w/v)): -125 ± 0 mg/L | propionate level in biofilm supernatant, mean ± SD (multi-species biofilms; substrate 1% (w/v)): 2205 ± 89 mg/L | acetate level in biofilm supernatant, mean ± SD (multi-species biofilms; substrate 1 M): 3815 ± 77 mg/L | butyrate level in biofilm supernatant, mean ± SD (multi-species biofilms; substrate 1 M): 1255±51 mg/L and 1255 ± 51^∗ mg/L | formate level in biofilm supernatant, mean ± SD (multi-species biofilms; substrate 1 M): 352 ± 18 mg/L | lactate level in biofilm supernatant, mean ± SD (multi-species biofilms; substrate 1 M): -125 ± 0 mg/L | propionate level in biofilm supernatant, mean ± SD (multi-species biofilms; substrate 1 M): 2750±40 mg/L and 2750 ± 40^∗ mg/L | fold change in aae expression, geometric mean (95% C.I.) [1, 5]: 1.55 (1.18-2.03) fold | fold change in apaH expression, geometric mean (95% C.I.) [1, 5]: 0.73 (0.41-1.29) fold | fold change in cdtB expression, geometric mean (95% C.I.) [1, 5]: 1.05 (0.61-1.81) fold | fold change in emaA expression, geometric mean (95% C.I.) [1, 5]: 0.68 (0.15-3.07) fold | fold change in flp expression, geometric mean (95% C.I.) [1, 5]: 0.54 (0.19-1.56) fold | fold change in ltxA expression, geometric mean (95% C.I.) [1, 5]: 0.4 (0.11-1.39) fold | fold change in omp29 expression, geometric mean (95% C.I.) [1, 5]: 0.77 (0.69-0.87) fold | fold change in omp100 expression, geometric mean (95% C.I.) [1, 5]: 0.71 (0.42-1.18) fold | fold change in orf859 expression, geometric mean (95% C.I.) [1, 5]: 1.99 (0.94-4.22)* fold | fold change in pgA expression, geometric mean (95% C.I.) [1, 5]: 1.07 (0.29-3.97) fold | fold change in vapA expression, geometric mean (95% C.I.) [1, 5]: 0.65 (0.48-0.86) fold | fold change in vppA expression, geometric mean (95% C.I.) [1, 5]: 0.28 (0.09-0.86)* fold | fold change in aae expression, geometric mean (95% C.I.) [1, 6]: 0.24 (0.18-0.33)^∗ fold | fold change in apaH expression, geometric mean (95% C.I.) [1, 6]: 0.08 (0.02-0.29)^∗ fold | fold change in cdtB expression, geometric mean (95% C.I.) [1, 6]: 0.04 (0.01-0.20)* fold | fold change in emaA expression, geometric mean (95% C.I.) [1, 6]: 0.29 (0.07-1.20)* fold | fold change in flp expression, geometric mean (95% C.I.) [1, 6]: 2.40 (0.67-8.67) fold | fold change in ltxA expression, geometric mean (95% C.I.) [1, 6]: 0.01 (0.00-0.20)* fold | fold change in omp29 expression, geometric mean (95% C.I.) [1, 6]: 0.19 (0.09-0.38)* fold | fold change in omp100 expression, geometric mean (95% C.I.) [1, 6]: 0.03 (0.01-0.05)* fold | fold change in orf859 expression, geometric mean (95% C.I.) [1, 6]: 0.13 (0.05-0.36)* fold | fold change in pgA expression, geometric mean (95% C.I.) [1, 6]: 11.6 (3.23-41.74)* fold | fold change in vapA expression, geometric mean (95% C.I.) [1, 6]: 1.00 (0.58-1.75) fold | fold change in vppA expression, geometric mean (95% C.I.) [1, 6]: 0.49 (0.41-0.59) fold | downregulation of P. gingivalis partC expression ([2]; substrate 1% (w/v)): approximately 2.8 fold | fold change in fimA expression, geometric mean (95% C.I.) ([2]; substrate 1 % (w/v)): 1.15 (0.32-4.06) fold | fold change in kgp expression, geometric mean (95% C.I.) ([2]; substrate 1 % (w/v)): 1.81 (0.44-7.50) fold | fold change in partC expression, geometric mean (95% C.I.) ([2]; substrate 1 % (w/v)): 0.36 (0.08-1.68)^∗ fold | fold change in rgpA expression, geometric mean (95% C.I.) ([2]; substrate 1 % (w/v)): 1.31 (1.03-1.66) fold | fold change in fimA expression, geometric mean (95% C.I.) ([2]; substrate 1 M): 0.79 (0.44-1.39) fold | fold change in kgp expression, geometric mean (95% C.I.) ([2]; substrate 1 M): 0.07 (0.04-0.13)^∗ fold | fold change in partC expression, geometric mean (95% C.I.) ([2]; substrate 1 M): 0.19 (0.13-0.28)^∗ fold | fold change in rgpA expression, geometric mean (95% C.I.) ([2]; substrate 1 M): 0.39 (0.18-0.84) fold | fold change in DnaJ expression, geometric mean (95% C.I.) [3, 7]: 0.70 (0.50-0.99) fold | fold change in DnaK expression, geometric mean (95% C.I.) [3, 7]: 0.77 (0.34-1.77) fold | fold change in ECF expression, geometric mean (95% C.I.) [3, 7]: 0.48 (0.11-2.02) fold | fold change in GroES expression, geometric mean (95% C.I.) [3, 7]: 0.75 (0.49-1.14) fold | fold change in HtpG expression, geometric mean (95% C.I.) [3, 7]: 0.46 (0.22-0.94)* fold | fold change in KpsD expression, geometric mean (95% C.I.) [3, 7]: 0.78 (0.37-1.62) fold | fold change in adpc expression, geometric mean (95% C.I.) [3, 7]: 0.67 (0.64-0.69) fold | fold change in clpB expression, geometric mean (95% C.I.) [3, 7]: 1.06 (0.58-1.96) fold | fold change in inpA expression, geometric mean (95% C.I.) [3, 7]: 0.53 (0.24-1.17)* fold | fold change in phg expression, geometric mean (95% C.I.) [3, 7]: 0.69 (0.47-1.00) fold | fold change in DnaJ expression, geometric mean (95% C.I.) [3, 8]: 0.64 (0.35-1.16) fold | fold change in DnaK expression, geometric mean (95% C.I.) [3, 8]: 2.34 (1.23-4.43)* fold | fold change in ECF expression, geometric mean (95% C.I.) [3, 8]: 20.32 (4.81-85.88)^∗ fold | fold change in GroES expression, geometric mean (95% C.I.) [3, 8]: 1.86 (1.38-2.50) fold | fold change in HtpG expression, geometric mean (95% C.I.) [3, 8]: 3.40 (2.27-5.08)* fold | fold change in KpsD expression, geometric mean (95% C.I.) [3, 8]: 1.72 (0.62-4.72) fold | fold change in adpc expression, geometric mean (95% C.I.) [3, 8]: 2.65 (1.25-5.62)* fold | fold change in clpB expression, geometric mean (95% C.I.) [3, 8]: 2.03 (0.94-4.41) fold | fold change in inpA expression, geometric mean (95% C.I.) [3, 8]: 4.52 (4.14-4.94)^∗ fold | fold change in phg expression, geometric mean (95% C.I.) [3, 8]: 0.57 (0.38-0.85)* fold | fold change in ABC transp. perm. (ABC transporter permease) expression, geometric mean (95% C.I.) ([4]; substrate 1% (w/v)): 0.33 (0.12-0.87)^∗ fold | fold change in EF-G expression, geometric mean (95% C.I.) ([4]; substrate 1% (w/v)): 0.10 (0.02-0.45)^∗ fold | fold change in but. -coA transf. (butyrate-acetoacetate CoA-transferase) expression, geometric mean (95% C.I.) ([4]; substrate 1% (w/v)): 0.21 (0.11-0.39)^∗ fold | fold change in hemin receptor expression, geometric mean (95% C.I.) ([4]; substrate 1% (w/v)): 0.19 (0.02-1.67)^∗ fold | fold change in hemolysin expression, geometric mean (95% C.I.) ([4]; substrate 1% (w/v)): 0.79 (0.30-2.04) fold | fold change in ompA expression, geometric mean (95% C.I.) ([4]; substrate 1% (w/v)): 0.74 (0.18-2.98) fold | fold change in transposase expression, geometric mean (95% C.I.) ([4]; substrate 1% (w/v)): 0.98 (0.18-5.39) fold | upregulation of F. nucleatum virulence gene expression, range over genes ([4]; substrate 1 M): more limited and only significant for 2 genes | fold change in ABC transp. perm. (ABC transporter permease) expression, geometric mean (95% C.I.) ([4]; substrate 1 M): 3.33 (2.53-4.39)^∗ fold | fold change in EF-G expression, geometric mean (95% C.I.) ([4]; substrate 1 M): 1.45 (0.93-2.26) fold | fold change in but. -coA transf. (butyrate-acetoacetate CoA-transferase) expression, geometric mean (95% C.I.) ([4]; substrate 1 M): 1.21 (0.99-1.49) fold | fold change in hemin receptor expression, geometric mean (95% C.I.) ([4]; substrate 1 M): 3.26 (2.24-4.76)^∗ fold | fold change in hemolysin expression, geometric mean (95% C.I.) ([4]; substrate 1 M): 1.90 (1.29-2.79) fold | fold change in ompA expression, geometric mean (95% C.I.) ([4]; substrate 1 M): 1.33 (0.78-2.25) fold | fold change in transposase expression, geometric mean (95% C.I.) ([4]; substrate 1 M): 1.27 (0.68-2.37) fold
